The text below walks through data of patent US9072778B2, “Treatment regimen for N-MYC, c-MYC, and L-MYC amplified and overexpressed tumors” (UNIVERSITY OF HAWAII, priority 2005, dated 2015).

One data set has as its system p27^Kip1. In words: Western blot of p27Kip1 in inhibitor-treated NB cells. The format is cell-based, human. Conditions: LAN-1 and NMB-7; 5 mM DFMO, 10 μM SAM486A; days 2 and 3, relative to untreated control. How it is done:
To further investigate the mechanism that regulates G1 arrest in LAN-1 and NMB-7 cells, and to define the changes in associated protein responses, the cell cycle-related proteins p21^Waf1/Cip1, p27^Kip1, p53, Rb, and MYCN in NB cell lysates were studied. Cells were analyzed on days 1, 2, and 3. Equal amounts of total protein were loaded in all experiments. Proteins were scanned and the ratio of hypophosphorylated Rb (pRb) (lower band):hyperphosphorylated Rb (ppRb) (upper band) was calculated (b). MYCN bands were quantified and normalized relative to β-actin. Values are presented as percentage (%) of controls of day 1, 2 or 3. (c). The data are representative of at least three independent experiments. […] To test for the presence of the cdk inhibitor protein p21^Waf1/Cip1, identical experiments were conducted, but the protein could not be detected (not shown). Low levels of p21^Waf1/Cip1 in NB cells have been previously described (McKenzie et al., (2003). Cancer Res, 63, 3840-4, which is incorporated herein by reference in its entirety). Similarly, the tumor suppressor protein p53 was not detected (not shown), which is in agreement with previous findings that cell lines LAN-1 and NMB-7 are p53 deficient. In contrast, p53 was readily expressed in identical Western blot control experiments and detected by immunofluorescence using the p53 wild type cell line SK-N-SH (not shown).
(In general: A western blot detects proteins with antibodies after separation by electrophoresis.)

In the next data set the test system is LAN-1 cells. The experiment in a line: Cell growth and proliferation (cell number) and morphology, LAN-1. The format is cell-based, human. The settings on record: LAN-1, 3 days; 5 mM DFMO, 10 μM SAM486A. On the procedure: (§1) Cell numbers are expressed as percentage (%) of control cell growth and proliferation. Each sample was measured in duplicate and the data represent the mean of three separate determinations±SD. The observed growth and proliferation inhibition of LAN-1 and NMB-7 cells was accompanied by dramatic alterations in cell morphology (FIG. 4b). […] On day 3, both untreated and treated cells were washed free of inhibitor by washing twice with PBS, reseeded in new medium (NM) (solid black arrow) without inhibitors at the starting cell density (dashed black arrow) and the experiment was continued for an additional 7 days. While the untreated LAN-1 and NMB-7 cells grew normally and reached similar cell densities after an additional 3 days (day 6 of the experiment), the initially treated LAN-1 and NMB-7 cells resumed proliferation only slowly and reached about 30% and 58% of control cell growth and proliferation, respectively, on day 10 of the experiment (FIG. 6). Cell numbers were determined using a hemocytometer and trypan blue reagent, and each data point is representative of three separate determinations±SD. […] (not shown). Human NB cell lines were provided by Dr. Robert Seeger (LAN-1; University of California, Los Angeles, Calif.), Dr. Nai-Kong Cheung (NMB-7; Memorial Sloan-Kettering Cancer Center, NY), and the American Type Culture Collection (SK-N-SH; ATCC, Manassas, Va.). […]

A further data set has as its system NMB-7 cells. In words: Cell growth and proliferation (cell number) and morphology, NMB-7. Type of data set: cell-based, human. The settings on record: NMB-7, 3 days; 5 mM DFMO, 10 μM SAM486A. On the procedure: as §1
For a further data set, the target named is T1, ODC (Homo sapiens, UniProt P11926).
T1 construct: enzyme activities were measured in cell lysates; endogenous in cells
T1 sequence (P11926 1-461): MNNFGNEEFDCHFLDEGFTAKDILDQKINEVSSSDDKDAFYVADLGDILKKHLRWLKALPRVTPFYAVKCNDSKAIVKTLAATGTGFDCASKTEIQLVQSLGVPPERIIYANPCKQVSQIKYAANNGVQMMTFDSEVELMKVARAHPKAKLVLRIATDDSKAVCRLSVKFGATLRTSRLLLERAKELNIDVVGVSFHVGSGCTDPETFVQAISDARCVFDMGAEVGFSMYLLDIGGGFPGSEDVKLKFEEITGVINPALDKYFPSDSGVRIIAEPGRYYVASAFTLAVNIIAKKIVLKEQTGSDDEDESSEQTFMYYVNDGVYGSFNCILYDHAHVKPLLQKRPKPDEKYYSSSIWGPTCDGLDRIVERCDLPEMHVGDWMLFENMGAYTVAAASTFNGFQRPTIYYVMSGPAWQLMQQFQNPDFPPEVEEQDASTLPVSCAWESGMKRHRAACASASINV
The experiment in a line: ODC activity after preincubation of cell extracts with DFMO. The format is biochemical. Conditions: extracts from untreated or DFMO-treated LAN-1 cells, 100 μM DFMO, 30 min at 37° C.

For data set [1] the following is noted: SAM486A, Phase II, relapsed or refractory non-Hodgkin's lymphoma; cited from earlier work.

Description for ODC: ODC and AdoMetDC enzyme activities were determined using a standard assay known in the art. In brief, NB cells were washed twice with ice-cold PBS and harvested in 50 mM sodium phosphate buffer (pH 7.2), 0.1 mM EDTA, 2.5 mM DTT, supplemented with 1× protease inhibitor cocktail (Roche Molecular Biochemicals, Indianapolis, Ind.). […] Cells were lysed by three freeze/thaw cycles and cell lysates were prepared by centrifugation for 20 minutes at 14,000 rpm and 4° C. ODC activity was measured in a reaction mixture that contained 20 μM L-[1-^14C]ornithine (47.70 mCi/mmol; NEN Life Science Products, Boston, Mass.).

With `NCCC[C@](N)(C(=O)O)C(F)F` [DFMO, α-difluoromethylornithine], the “p27^Kip1 protein levels” value in the data set with p27^Kip1 is reported as “increased endogenous levels of cdk inhibitor protein p27^Kip1”. For the same compound, the “cell morphology (FIG. 4b)” value with LAN-1 cells is “changed into spindle-like cells with neurite-like extensions”; in the data set on NMB-7 cells it was “formed large polynucleate cell aggregates with only very short extensions”. Besides, on ODC, the “ODC activity after preincubation of extracts” value is reported as “complete loss of ODC activity”.
With `N=C(N)c1cccc2c1CC/C2=N\N=C(N)N` [SAM486A, 4-amidinoindan-1-one 2′-amidinohydrazone], in the data set with p27^Kip1, the “p27^Kip1 protein levels” value is “did not alter p27^Kip1 levels”. Further, the “most frequent side effects” value in data set [1] is “nausea, vomiting, diarrhea, asthenia, abdominal pain, and flushing”.
